The subject of one data set is Salmonella strains. In words: Ames test (mutagenicity). It counts as biochemical.
A short description of data set [1]: Solubility in 96° ethanol at 25° C. It counts as physicochemical. An excerpt:
The compound of formula (II) also has the advantage of having a good solubility in the usual dye carriers.

Data set [2] in a line: Dye fastness on hair, fastness to washing/shampooing. Set-up: species or system human. Conditions: compared to nitro benzene dyes.

Consider `Nc1ccc(N=Nc2ccc(N(CCO)CCO)cc2)cc1` [(I)], for which, in the data set on Salmonella strains (five strains of the Salmonella type, in the presence of a S-9 Mix microsomal activator), the “mutagenicity (Ames test)” value was “mutagenic to five strains of the Salmonella type”. This compound came in with a solubility in data set [1] of 1.3%. Moreover, the stability to washing result in data set [2] was “improved stability to washing”.

Consider `Cc1cc(N(CCO)CCO)ccc1N=Nc1ccc(N)cc1` [(II)], for which, in the data set on Salmonella strains (strains and activation not stated for this compound), the non-mutagenicity entry is “non-mutagenicity has been demonstrated”. Moreover, the solubility in data set [1] amounted to 5.3%.

The record behind these values is patent US4886517A, “Dyeing composition for human hair containing an azo dye” (L'Oreal, priority 1985, dated 1989).
